Data: ChEMBL document CHEMBL1129503, “4'-O-[2-(2-fluoromalonyl)]-L-tyrosine: a phosphotyrosyl mimic for the preparation of signal transduction inhibitory peptides” (J Med Chem, 1996)
Where a SMILES comes first, the peptide text is derived from it. The star is where a group is joined. X2 = O=C(O)C(F)(C(=O)O)*; X1 = O=C(O)C(C(=O)O)*

Columns and labels:
[1] = target: T1, Tyrosine-protein phosphatase non-receptor type 1 (Homo sapiens, UniProt P18031); assay: Inhibitory activity against Protein-tyrosine phosphatase 1B-mediated dephosphorylation of phosphorylated insulin receptor using (CHO) cell line transfected with an expression plasmid encoding the normal human insulin receptor [CHO/HIRc]
T1 sequence (P18031 whole entry): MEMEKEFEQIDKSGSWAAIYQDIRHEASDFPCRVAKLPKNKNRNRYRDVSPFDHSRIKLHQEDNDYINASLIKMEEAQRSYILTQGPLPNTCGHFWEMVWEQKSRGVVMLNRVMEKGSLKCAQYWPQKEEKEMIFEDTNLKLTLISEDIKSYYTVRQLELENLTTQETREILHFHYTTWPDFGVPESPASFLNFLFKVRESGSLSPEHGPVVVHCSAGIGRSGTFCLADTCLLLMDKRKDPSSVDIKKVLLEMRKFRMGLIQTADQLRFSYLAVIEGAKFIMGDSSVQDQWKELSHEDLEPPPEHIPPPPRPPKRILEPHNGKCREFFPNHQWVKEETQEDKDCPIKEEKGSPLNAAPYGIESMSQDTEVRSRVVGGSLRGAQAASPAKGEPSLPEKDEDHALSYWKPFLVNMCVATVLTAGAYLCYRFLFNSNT

[2] = Inhibition of binding to p85 Phosphatidylinositol 3-kinase C-terminal SH2 domain
[3] = Ionization constant (pKa2) by treating potentiometric titration data according to the method Noyes; format: physicochemical; conditions: read-out: pKa2

Compound | IC50 [1] | IC50 [2] | pKa [3]
CSCC[C@H](NC(=O)[C@@H]1CCCN1C(=O)[C@@H](NC(=O)[C@H](Cc1ccc(OC(F)(C(=O)O)C(=O)O)cc1)NC(=O)[C@H](CC(=O)O)NC(C)=O)C(C)C)C(=O)N[C@@H](CC(C)C)C(N)=O (Ac-DY(X2)VPML-NH2) | – | 18 µM | –
CSCC[C@H](NC(=O)[C@@H]1CCCN1C(=O)[C@@H](NC(=O)[C@H](Cc1ccc(OC(C(=O)O)C(=O)O)cc1)NC(=O)[C@H](CC(=O)O)NC(C)=O)C(C)C)C(=O)N[C@@H](CC(C)C)C(N)=O (Ac-DY(X1)VPML-NH2) | – | 14 µM | –
CC(=O)N[C@@H](CC(=O)O)C(=O)N[C@@H](C)C(=O)N[C@@H](CC(=O)O)C(=O)N[C@@H](CCC(=O)O)C(=O)N[C@@H](Cc1ccc(OC(F)(C(=O)O)C(=O)O)cc1)C(=O)N[C@@H](CC(C)C)C(N)=O (Ac-DADEY(X2)L-NH2) | 1 µM | – | –

Second part, the compound after the results:

IC50 [1] | IC50 [2] | pKa [3] | Compound
10 µM | – | – | CC(=O)N[C@@H](CC(=O)O)C(=O)N[C@@H](C)C(=O)N[C@@H](CC(=O)O)C(=O)N[C@@H](CCC(=O)O)C(=O)N[C@@H](Cc1ccc(OC(C(=O)O)C(=O)O)cc1)C(=O)N[C@@H](CC(C)C)C(N)=O (Ac-DADEY(X1)L-NH2)
– | – | 2.84 | O=C(O)C(F)(Oc1ccc2cc(Br)ccc2c1)C(=O)O
– | – | 3.91 | O=C(O)C(Oc1ccc2cc(Br)ccc2c1)C(=O)O
